Paper PMC8520055 (Asian Journal of Pharmaceutical Sciences, 2021)
Like-named read-outs stand apart in the source and are kept apart here.

Key:
Pharmacokinetics of ATV [1] = type: in vivo, rats; conditions: for metabolite plasma concentrations vs control: ATV 10 mg/kg p.o., at 7.5, 15, 30 and 60 min after KTZ 20 mg/kg i.v.
Pharmacokinetics of ATV [2] = type: in vivo, rats; conditions: for Plasma concentrations vs control rats: ATV 10 mg/kg p.o., rats treated with RIF 30 mg/kg i.v.
[3] = plasma 4β-HC; cited from earlier work
[4] = Hepatic disposition of ATV and GCDCA-S in rats with ANIT-induced liver injury; type: in vivo; conditions: ANIT-induced liver injury (Fig. S15)
[5] = Plasma and hepatic concentration of KTZ after a single oral dose; type: in vivo, rats; conditions: for concentration at 1 h: rat, plasma, po; for Hepatic concentration: 1 h
HepaRG cells [6] = assay: Metabolism of ATV and cholesterol in HepaRG cells in presence of KTZ; type: cell-based, human; conditions: KTZ 10 µM, HepaRG cells (Fig. S14)
Oatps [7] = assay: Hepatic uptake of ATV and GCDCA-S after 7 d oral RIF or KTZ; type: in vivo, rats; conditions: for hepatic uptake of ATV: inhibitor p.o. 7 d (RIF 30 mg/kg, KTZ 20 mg/kg), ATV 10 mg/kg p.o., 30 min
Cyp3a [8] = assay: Endogenous Cyp3a markers; type: in vivo, rats
Cyp3a [9] = assay: Plasma GCDCA-S, cholesterol and 4β-HC after intravenous KTZ
Liver function = type: in vivo, rats
HepaRG cells [10] = assay: Uptake of ATV and GCDCA-S in HepaRG cells in presence of RIF; type: cell-based; conditions: Homo sapiens
Oatps [11] = assay: Reversibility of RIF inhibition of GCDCA-S uptake; type: in vivo, rats; conditions: RIF 30 mg/kg p.o. 7 d, then 7-d washout
Oatps [12] = conditions: read-out: IC50 for Oatps in vitro; cited from earlier work
Oatps [13] = assay: Plasma GCDCA-S, cholesterol and 4β-HC after intravenous RIF; type: in vivo, rats
Oatps [14] = assay: Endogenous substrates of Oatps; type: in vivo, rats
[15] = cited from earlier work
[16] = Plasma concentration of RIF after a single oral dose; type: in vivo, rats; conditions: rat
[17] = KTZ single oral dose 20-80 mg/kg
[18] = RIF 30-120 mg/kg single oral dose
[19] = RIF 30-120 mg/kg single oral dose, 2 h

CC(C)c1c(C(=O)Nc2ccccc2O)c(-c2ccccc2)c(-c2ccc(F)cc2)n1CCC(O)CC(O)CC(=O)O (stereo not drawn) [2-OH ATV, 2‑hydroxy-atorvastatin]
metabolite plasma concentrations vs control (Pharmacokinetics of ATV [1]): significantly decreased
Plasma concentrations vs control rats (Pharmacokinetics of ATV [2]): markedly higher

CC(C)c1c(C(=O)Nc2ccc(O)cc2)c(-c2ccccc2)c(-c2ccc(F)cc2)n1CC[C@@H](O)C[C@@H](O)CC(=O)O [4-OH ATV, 4‑hydroxy-atorvastatin]
metabolite plasma concentrations vs control (Pharmacokinetics of ATV [1]): significantly decreased
Plasma concentrations vs control rats (Pharmacokinetics of ATV [2]): markedly higher

CC(C)CCC[C@@H](C)[C@H]1CC[C@H]2[C@@H]3CC=C4[C@@H](O)[C@@H](O)CC[C@]4(C)[C@H]3CC[C@]12C [4β-HC, 4β-hydroxycholesterol]
half-life [3]: ~17 days

S=C=Nc1cccc2ccccc12 [ANIT, α-naphthylisothiocyanate]
liver mRNA level of Oatp [4]: decreased

CC(=O)N1CCN(c2ccc(OCC3COC(Cn4ccnc4)(c4ccc(Cl)cc4Cl)O3)cc2)CC1 (stereo not drawn) [KTZ, ketoconazole]
concentration at 1 h ([5]; 20 mg/kg): 23.9 µM
concentration at 1 h ([5]; 40 mg/kg): 31.4 µM
concentration at 1 h ([5]; 80 mg/kg): 49.6 µM
Hepatic concentration ([5]; single oral dose 20 mg/kg): 87.1 µmol/kg tissue
Hepatic concentration ([5]; single oral dose 40 mg/kg): 119.2 µmol/kg tissue
Hepatic concentration ([5]; single oral dose 80 mg/kg): 160.6 µmol/kg tissue
degradation ATV to 2-OH ATV and 4-OH ATV (HepaRG cells [6]): inhibited
formation of 4β-HC (HepaRG cells [6]): did not affect
hepatic uptake of ATV (Oatps [7]): minimally impacted
KTZ level (plasma) (Pharmacokinetics of ATV [1]; after single i.v. KTZ 20 mg/kg, over 0-360 min (Fig. S10)): above 1.5 µM
blood concentration of 6β-HC (Cyp3a [8]; KTZ multiple-dose 7 d): increased
plasma concentrations of 4β-HC (Cyp3a [8]; KTZ repeated oral dose 7 d, 20-80 mg/kg): markedly elevated
hepatic 6β-HC levels (Cyp3a [8]; [17]): dose-dependently decreased
plasma 6β-HC levels (Cyp3a [8]; [17]): not been influenced
Hepatic 4β-HC levels (Cyp3a [8]; KTZ single oral dose 20-80 mg/kg (Fig. S5)): significantly increased
plasma levels of cholesterol and its metabolite 4β-HC (Cyp3a [9]; after intravenous KTZ 20 mg/kg): not affected
plasma concentrations of GCDCA-S (Cyp3a [9]; after intravenous KTZ 20 mg/kg (Fig. S9)): not changed
liver function (serum AST, ALT, ALP) (Liver function; KTZ 20, 40, 80 mg/kg single or multiple oral dose (Fig. S2)): not affect liver function

CO[C@H]1/C=C/O[C@@]2(C)Oc3c(C)c(O)c4c(O)c(c(/C=N/N5CCN(C)CC5)c(O)c4c3C2=O)NC(=O)/C(C)=C\C=C\[C@H](C)[C@H](O)[C@@H](C)[C@@H](O)[C@@H](C)[C@H](OC(C)=O)[C@@H]1C [RIF, rifampicin]
IC50 (HepaRG cells [10]; read-out: IC50 for uptake of ATV): 1 µM
IC50 (HepaRG cells [10]; read-out: IC50 for uptake of GCDCA-S): 9.8 µM
effect on the hepatic uptake of GCDCA-S after washout (Oatps [11]): fully reversed
plasma GCDCA-S level vs vehicle-treated rats after washout (Oatps [11]): not significant different
IC50 (Oatps [12]): 0.14 to 1.7 µM
plasma concentrations of GCDCA-S (Oatps [13]; after intravenous RIF 30 mg/kg): significantly increased
plasma concentration of cholesterol and 4β-HC (Oatps [13]; after intravenous RIF 30 mg/kg (Fig. S7)): did not affect
hepatic uptake of CP I/III (Oatps [14]; [18]): did not inhibit
plasma concentrations of CP I/III (Oatps [14]; [18]): did not affect
biosynthesis of GCDCA-S from GCDCA in the liver (Oatps [14]; RIF 30-120 mg/kg single oral dose (Fig. S3)): did not affect
hepatic uptake ratio of CA, GCA, GUDCA, TCDCA, TUDCA, THDCA, TLCA and GCDCA-S (Oatps [14]; [19]): decreased
plasma CA, CDCA, HDCA, GCA, GUDCA, TCDCA, TDCA, THDCA and GCDCA-S levels (Oatps [14]; [19]): dose-dependently increased
hepatic uptake of GCDCA-S (Oatps [7]; RIF 30 mg/kg p.o. 7 d): decreased
plasma concentration of GCDCA-S (Oatps [7]; RIF 30 mg/kg p.o. 7 d): significantly increased
hepatic uptake of ATV (Oatps [7]): greatly attenuated
plasma unbound fraction [15]: 0.265
plasma RIF level (Pharmacokinetics of ATV [2]; after single i.v. RIF 30 mg/kg, over 0-360 min (Fig. S8)): above 5.5 µM
concentration at 2 h ([16]; 30 mg/kg): 11.6 µM
concentration at 2 h ([16]; 60 mg/kg): 22.4 µM
concentration at 2 h ([16]; 120 mg/kg): 26.5 µM
liver function (serum AST, ALT, ALP) (Liver function; RIF 30, 60, 120 mg/kg single oral dose (Fig. S2)): not affect liver function
